# In the supplement of paper PMC6045584:
# ± gives the standard deviation of the averaged measurements.
# Columns and labels:
# [1] = compound: CCN(CC)CCCCNc1ncc2cc(-c3cc(OC)cc(OC)c3)c(NC(=O)NC(C)(C)C)nc2n1; experiment: surviving fraction relative to DMSO-only wells; higher = less growth inhibition; details: exposure time: 5 days
# In short: (§1)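 Continuous five-day exposure to inhibitors at 0.5, 1, 5, 10, 50, 100, 500 and 1000 nM started 24 hours after log-phase tumour cell lines were seeded at 250–500 cells per well in 384-well plates. Luminescence was read after 10 minutes at room temperature. Viability is given as surviving fraction, meaning CellTiter-Glo luminescence normalised to the median of DMSO-only wells.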
# 2-METHOXYESTRADIOL = compound: COc1cc2c(cc1O)CC[C@@H]1[C@@H]2CC[C@]2(C)[C@@H](O)CC[C@@H]12 [2-METHOXYESTRADIOL]; experiment: as above; details: exposure time: 5 days
# In short: as §1
Test System,surviving fraction ([1]; 0.5 nM),surviving fraction ([1]; 1 nM),surviving fraction ([1]; 5 nM),surviving fraction ([1]; 10 nM),surviving fraction ([1]; 50 nM),surviving fraction ([1]; 100 nM),surviving fraction ([1]; 500 nM),surviving fraction ([1]; 1000 nM),surviving fraction (2-METHOXYESTRADIOL; 0.5 nM),surviving fraction (2-METHOXYESTRADIOL; 1 nM),surviving fraction (2-METHOXYESTRADIOL; 5 nM),surviving fraction (2-METHOXYESTRADIOL; 10 nM),surviving fraction (2-METHOXYESTRADIOL; 50 nM),surviving fraction (2-METHOXYESTRADIOL; 100 nM),surviving fraction (2-METHOXYESTRADIOL; 500 nM),surviving fraction (2-METHOXYESTRADIOL; 1000 nM)
MDAMB361 BREAST,0.945 ± 0.025,0.917 ± 0.056,0.855 ± 0.092,0.839 ± 0.051,0.955 ± 0.097,0.846 ± 0.034,0.937 ± 0.065,0.859 ± 0.025,0.843 ± 0.082,0.827 ± 0.11,0.865 ± 0.046,0.829 ± 0.11,0.788 ± 0.043,0.8 ± 0.083,0.666 ± 0.014,0.701 ± 0.081
JURKAT HAEMATOPOIETIC AND LYMPHOID TISSUE,1.03 ± 0.042,1.08 ± 0.015,1.04 ± 0.022,1.055 ± 0.0052,1 ± 0.039,1.05 ± 0.02,1.02 ± 0.021,1.07 ± 0.021,1.08 ± 0.021,1.08 ± 0.014,1.03 ± 0.005,1.02 ± 0.033,1.02 ± 0.032,0.993 ± 0.016,0.043 ± 0.001,0.042 ± 0.001
SCC003 HEADNECK,0.927 ± 0.046,1.02 ± 0.055,1.02 ± 0.092,1.01 ± 0.086,0.981 ± 0.037,1.11 ± 0.091,1.09 ± 0.13,0.988 ± 0.097,0.936 ± 0.064,0.88 ± 0.13,1.03 ± 0.045,0.976 ± 0.074,1.04 ± 0.043,1.11 ± 0.017,0.867 ± 0.15,0.734 ± 0.087
HCC78 LUNG,0.977 ± 0.31,0.856 ± 0.038,0.997 ± 0.23,0.968 ± 0.07,0.935 ± 0.19,0.917 ± 0.093,0.964 ± 0.097,0.941 ± 0.084,0.781 ± 0.22,0.786 ± 0.076,0.866 ± 0.094,1.02 ± 0.24,0.827 ± 0.14,0.759 ± 0.14,0.298 ± 0.087,0.0893 ± 0.036
MFM223 BREAST,1.02 ± 0.04,1.1 ± 0.022,0.982 ± 0.1,0.823 ± 0.089,0.361 ± 0.029,0.277 ± 0.019,0.282 ± 0.026,0.258 ± 0.012,1.11 ± 0.1,1.11 ± 0.062,1.1 ± 0.093,1.17 ± 0.35,1.06 ± 0.034,0.973 ± 0.026,0.384 ± 0.057,0.16 ± 0.032
HCC202 BREAST,1.05 ± 0.052,1.31 ± 0.39,1.3 ± 0.53,1.22 ± 0.13,1.27 ± 0.32,1.41 ± 0.073,1.13 ± 0.14,1.24 ± 0.061,1.1 ± 0.39,1.22 ± 0.36,1.12 ± 0.29,1.02 ± 0.19,1.23 ± 0.062,1.04 ± 0.27,0.713 ± 0.32,0.564 ± 0.23
HCC1395 BREAST,0.991 ± 0.2,0.785 ± 0.093,0.968 ± 0.14,0.9 ± 0.021,0.872 ± 0.14,0.867 ± 0.074,0.826 ± 0.17,0.818 ± 0.18,0.926 ± 0.081,1.15 ± 0.08,1.14 ± 0.035,1.25 ± 0.085,1.24 ± 0.027,1.22 ± 0.072,1.17 ± 0.083,0.907 ± 0.088
BT20 BREAST,1.17 ± 0.13,1.17 ± 0.065,1.09 ± 0.26,1.17 ± 0.09,1.17 ± 0.12,1.12 ± 0.029,1.53 ± 0.17,1.64 ± 0.057,1.08 ± 0.068,1.09 ± 0.062,1.07 ± 0.082,1.05 ± 0.076,1.24 ± 0.14,1.11 ± 0.067,1.13 ± 0.044,0.662 ± 0.048
U2OS BONE,1 ± 0.011,0.994 ± 0.026,1.03 ± 0.045,1.01 ± 0.02,0.916 ± 0.012,0.825 ± 0.017,0.745 ± 0.049,0.739 ± 0.0095,1.03 ± 0.016,1.013 ± 0.0046,1.02 ± 0.043,1.02 ± 0.017,1.06 ± 0.017,1.01 ± 0.021,0.681 ± 0.02,0.359 ± 0.033
SG31 HEADNECK,1.04 ± 0.055,0.949 ± 0.11,0.934 ± 0.15,0.932 ± 0.12,0.845 ± 0.12,0.997 ± 0.051,0.934 ± 0.069,0.934 ± 0.1,1.09 ± 0.23,1.12 ± 0.13,0.996 ± 0.26,1.09 ± 0.084,1 ± 0.077,0.949 ± 0.025,1.12 ± 0.13,0.962 ± 0.073
OS25HAL BONE,0.969 ± 0.0072,0.983 ± 0.023,0.973 ± 0.0036,1 ± 0.025,1 ± 0.0091,1 ± 0.013,0.979 ± 0.0085,1.03 ± 0.03,0.828 ± 0.2,0.94 ± 0.029,0.961 ± 0.021,0.945 ± 0.042,1 ± 0.086,1.05 ± 0.072,0.501 ± 0.092,0.169 ± 0.014
SCC36 HEADNECK,1.1 ± 0.082,1.03 ± 0.12,1.1 ± 0.15,1.19 ± 0.028,0.978 ± 0.086,1.04 ± 0.043,0.83 ± 0.039,0.692 ± 0.082,1.09 ± 0.053,1.03 ± 0.052,1.09 ± 0.083,1.04 ± 0.091,1.22 ± 0.065,1.14 ± 0.016,0.94 ± 0.096,0.251 ± 0.029
SUM44 BREAST,0.956 ± 0.064,0.928 ± 0.04,1.03 ± 0.019,1.04 ± 0.087,1.04 ± 0.095,1.04 ± 0.094,0.985 ± 0.026,1.03 ± 0.037,1.14 ± 0.32,1.15 ± 0.3,1.14 ± 0.23,1.12 ± 0.2,1.3 ± 0.4,1.21 ± 0.33,0.837 ± 0.091,0.53 ± 0.054
SG32 HEADNECK,1.03 ± 0.14,1.05 ± 0.086,1.15 ± 0.13,1.01 ± 0.16,0.859 ± 0.027,0.793 ± 0.0076,1.36 ± 0.92,0.884 ± 0.15,1.04 ± 0.1,0.985 ± 0.03,1.04 ± 0.21,0.96 ± 0.083,0.947 ± 0.059,0.847 ± 0.075,0.62 ± 0.12,0.34 ± 0.034
SUM159 BREAST,1.14 ± 0.3,1.1 ± 0.2,1.18 ± 0.36,1.14 ± 0.26,1.12 ± 0.26,1.13 ± 0.23,1.11 ± 0.21,1.18 ± 0.3,1.02 ± 0.028,1.02 ± 0.028,1.01 ± 0.027,1.02 ± 0.022,1.02 ± 0.023,1.04 ± 0.021,0.9593 ± 0.0093,0.562 ± 0.074
HCC1806 BREAST,1.11 ± 0.012,0.967 ± 0.1,1.11 ± 0.065,1.14 ± 0.033,1.11 ± 0.089,1.07 ± 0.043,1.06 ± 0.13,1.1 ± 0.095,0.946 ± 0.076,1.02 ± 0.052,1.03 ± 0.083,1.11 ± 0.052,1.06 ± 0.053,1.15 ± 0.079,1.06 ± 0.11,0.808 ± 0.036
NY BONE,0.932 ± 0.031,0.942 ± 0.013,0.964 ± 0.015,1 ± 0.029,0.895 ± 0.019,0.701 ± 0.015,0.337 ± 0.019,0.31 ± 0.004,0.95 ± 0.026,0.952 ± 0.014,0.983 ± 0.021,0.994 ± 0.017,1.03 ± 0.018,1 ± 0.031,0.106 ± 0.0015,0.057 ± 0.0036
RDES SOFT TISSUE,1.2 ± 0.034,1.35 ± 0.094,1.25 ± 0.088,1.26 ± 0.11,1.13 ± 0.032,1.25 ± 0.16,1.08 ± 0.29,1.06 ± 0.1,1.26 ± 0.16,1.26 ± 0.086,1.15 ± 0.046,1.29 ± 0.11,1.29 ± 0.15,1.17 ± 0.14,1.13 ± 0.12,0.178 ± 0.034
SNU475 LIVER,0.785 ± 0.028,0.964 ± 0.053,0.894 ± 0.05,0.987 ± 0.027,0.916 ± 0.044,0.939 ± 0.019,0.906 ± 0.022,0.886 ± 0.029,0.989 ± 0.048,1.01 ± 0.032,0.967 ± 0.026,0.968 ± 0.06,1.02 ± 0.053,0.997 ± 0.059,0.956 ± 0.057,0.775 ± 0.051
